Data as given in patent publication US6447749B1, “Perfluoro-alkyl containing dye molecules and galencial formulations” (Schering Aktiengesellschaft, priority 1999, dated 2002).
Structures can show the parent of a compound that is named as a salt.

Columns and labels:
[1] = Photophysical characterization: fluorescence properties and fluorescence quantum yield (SPEX-fluorolog, relative to indocyanine green); type: physicochemical; details: formulation with Gd-complex perfluoroalkyl derivative (WO 97/26017 Ex. 33); for Fluorescence quantum yield: 2 μM in dye
Method: (§1) The determination of the absorption maxima and extinction coefficients was carried out with a Lambda 2-spectrometer (Perkin-Elmer Company). The fluorescence properties were determined on a SPEX-fluorolog (Instruments S. A. Company, photomultiplier Hamamatsu PM928, excitation 350W xenon lamp). the determination of the fluorescence quantum yield was carried out relative to indocyanine green (O=13% in DMSO) by excitation at 585 nm (dyes with p=2) or 685 nm (dyes with p=3), in each case of solutions of concentration 2 μM in dye, and correction with the spectral sensitivity of lamp and detector.

[2] = Photophysical characterization: absorption maxima and extinction coefficients (Lambda 2-spectrometer); type: physicochemical; details: formulation with Gd-complex perfluoroalkyl derivative (WO 97/26017 Ex. 33)
Method: as §1

[3] = in DMSO; cited from earlier work
[4] = dyes 7-14 table, 5 mol % of dye

**Q.** What does the source list for CCN1C(=CC=CC=CC=CC2=[N+](CCCCS(=O)(=O)[O-])c3ccc(C(=O)NCCOCCC(F)(F)C(F)(F)C(F)(F)C(F)(F)C(F)(F)C(F)(F)C(F)(F)C(F)(F)F)cc3C2(C)C)C(C)(C)c2ccccc21 [Dye 12, 2-[5-(1-ethyl)-1,3-dihydro-3,3-dimethyl-2H-indol-2-ylidene)-1,3,5-heptatrienyl]-5-{N-[2-(3,3,4,4,5,5,6,6,7,7,8,8,9,9,10,10,10-heptadecafluorodecyloxy)-ethyl]-aminocarbonyl}-3,3-dimethyl-1-(4-sulfobutyl)-3H-indolium, internal salt, sodium salt]?
**A.** Fluorescence max. [1, 4]: 788 nm; Fluorescence quantum yield [1, 4]: 0.13; Absorption max. [2, 4]: 754 nm; Extinction coefficient [2, 4]: 118,800 L mol^−1 cm^−1

**Q.** For CCN1C(=CC=CC=CC2=[N+](CCCCS(=O)(=O)[O-])c3ccc(C(=O)NCCOCCC(F)(F)C(F)(F)C(F)(F)C(F)(F)C(F)(F)C(F)(F)C(F)(F)C(F)(F)F)cc3C2(C)C)C(C)(C)c2ccccc21 [Dye 11, 2-[5-(1-Ethyl)-1,3-dihydro-3,3-dimethyl-2H-indol-2-ylidene)-1,3-pentatrienyl]-5-{N-[2-(3,3,4,4,5,5,6,6,7,7,8,8,9,9,10,10,10-heptadecafluorodecyloxy)ethyl]-aminocarbonyl}-3,3-dimethyl-1-(4-sulfobutyl)-3H-indolium, internal salt, sodium salt], which Fluorescence max. [1, 4] is on record?
**A.** 683 nm

**Q.** What about the Fluorescence quantum yield [1, 4] of the same compound?
**A.** 0.14

**Q.** What about the Absorption max. [2, 4] of the same compound?
**A.** 653 nm

**Q.** What about the Extinction coefficient [2, 4] of the same compound?
**A.** 145,000 L mol^−1 cm^−1

**Q.** Which Fluorescence max. [1, 4] does the source give for CCN1C(=CC=CC=CC=CC2=[N+](CCCCS(=O)(=O)[O-])c3ccc(C(=O)N(CCOCCC(F)(F)C(F)(F)C(F)(F)C(F)(F)C(F)(F)C(F)(F)C(F)(F)C(F)(F)F)CC(O)CO)cc3C2(C)C)C(C)(C)c2ccccc21 (stereo not shown) [Dye 14, 2-[5-(1-ethyl)-1,3-dihydro-3,3-dimethyl-2H-indol-2-ylidene)-1,3,5-heptatrienyl]-5-{N-[2-(3,3,4,4,5,5,6,6,7,7,8,8,9,9,10,10,10-heptadecafluorodecyloxy)-ethyl]-N-(2,3-dihydroxypropyl)aminocarbonyl}-3,3-dimethyl-1-(4-sulfobutyl)-3H-indolium, internal salt, sodium salt] here?
**A.** 789 nm

**Q.** And the Fluorescence quantum yield [1, 4]?
**A.** 0.09

**Q.** What about the Absorption max. [2, 4] of the same compound?
**A.** 753 nm

**Q.** And the Extinction coefficient [2, 4]?
**A.** 124,100 L mol^−1 cm^−1

**Q.** Which Fluorescence max. [1, 4] does the source give for CCN1C(=CC=CC=CC2=[N+](CCCCS(=O)(=O)[O-])c3ccc(C(=O)N(CCOCCC(F)(F)C(F)(F)C(F)(F)C(F)(F)C(F)(F)C(F)(F)C(F)(F)C(F)(F)F)CC(O)CO)cc3C2(C)C)C(C)(C)c2ccccc21 (stereo not shown) [Dye 13, 2-[5-(1-ethyl)-1,3-dihydro-3,3-dimethyl-2H-indol-2-ylidene)-1,3-pentatrienyl]-5-{N-[2-(3,3,4,4,5,5,6,6,7,7,8,8,9,9,10,10,10-heptadecafluorodecyloxy)ethyl]-N-(2,3-dihydroxypropyl)aminocarbonyl}-3,3-dimethyl-1-(4-sulfobutyl)-3H-indolium, internal salt, sodium salt] here?
**A.** 684 nm

**Q.** What about the Fluorescence quantum yield [1, 4] of the same compound?
**A.** 0.16

**Q.** And the Absorption max. [2, 4]?
**A.** 650 nm

**Q.** And the Extinction coefficient [2, 4]?
**A.** 150,700 L mol^−1 cm^−1

**Q.** For CC1(C)C(=CC=CC=CC2=[N+](CCCCS(=O)(=O)[O-])c3ccc(C(=O)N(CCOCCC(F)(F)C(F)(F)C(F)(F)C(F)(F)C(F)(F)C(F)(F)C(F)(F)C(F)(F)F)CC(O)CO)cc3C2(C)C)N(CCCCS(=O)(=O)[O-])c2ccccc21.[Na+] (stereo not shown) [Dye 9, 5-{N-[2-(3,3,4,4,5,5,6,6,7,7,8,8,9,9,10,10,10-heptadecafluorodecyloxy)ethyl]-N-(2,3-dihydroxypropyl)aminocarbonyl}-2-{7-[1,3-dihydro-3,3-dimethyl-1-(4-sulfobutyl)-2H-indol-2-ylidene]-1,3-pentadienyl}-3,3-dimethyl-1-(4-sulfobutyl)-3H-indolium, internal salt, sodium salt], which Fluorescence max. [1, 4] is on record?
**A.** 685 nm

**Q.** And the Fluorescence quantum yield [1, 4]?
**A.** 0.12

**Q.** And the Fluorescence max. ([1]; 1 mol % of dye)?
**A.** 681 nm

**Q.** And the Fluorescence quantum yield ([1]; 1 mol % of dye)?
**A.** 0.17

**Q.** And the Fluorescence max. ([1]; 2 mol % of dye)?
**A.** 683 nm

**Q.** And the Fluorescence quantum yield ([1]; 2 mol % of dye)?
**A.** 0.18

**Q.** What about the Fluorescence max. ([1]; 5 mol % of dye) of the same compound?
**A.** 685 nm

**Q.** And the Fluorescence quantum yield ([1]; 5 mol % of dye)?
**A.** 0.12

**Q.** And the Fluorescence max. ([1]; 10 mol % of dye)?
**A.** 685 nm

**Q.** What about the Fluorescence quantum yield ([1]; 10 mol % of dye) of the same compound?
**A.** 0.04

**Q.** And the Absorption max. [2, 4]?
**A.** 651 nm

**Q.** What about the Extinction coefficient [2, 4] of the same compound?
**A.** 123,700 L mol^−1 cm^−1

**Q.** And the Absorption max. ([2]; 1 mol % of dye)?
**A.** 652 nm

**Q.** And the Extinction coefficient ([2]; 1 mol % of dye)?
**A.** 132,000 L mol^−1 cm^−1

**Q.** What about the Absorption max. ([2]; 2 mol % of dye) of the same compound?
**A.** 651 nm

**Q.** What about the Extinction coefficient ([2]; 2 mol % of dye) of the same compound?
**A.** 130,200 L mol^−1 cm^−1

**Q.** And the Absorption max. ([2]; 5 mol % of dye)?
**A.** 651 nm

**Q.** And the Extinction coefficient ([2]; 5 mol % of dye)?
**A.** 123,700 L mol^−1 cm^−1

**Q.** And the Absorption max. ([2]; 10 mol % of dye)?
**A.** 649 nm

**Q.** What about the Extinction coefficient ([2]; 10 mol % of dye) of the same compound?
**A.** 110,900 L mol^−1 cm^−1

**Q.** For CC1(C)C(/C=C/C=C/C=C/C=C2\N(CCCCS(=O)(=O)O)c3ccc4ccccc4c3C2(C)C)=[N+](CCCCS(=O)(=O)[O-])c2ccc3ccccc3c21 [indocyanine green], which “fluorescence quantum yield (reference standard)” value [3] is on record?
**A.** 13%
